Test [1] addresses T1, P2X7 (Homo sapiens, UniProt Q99572).
T1 sequence (Q99572 1-595): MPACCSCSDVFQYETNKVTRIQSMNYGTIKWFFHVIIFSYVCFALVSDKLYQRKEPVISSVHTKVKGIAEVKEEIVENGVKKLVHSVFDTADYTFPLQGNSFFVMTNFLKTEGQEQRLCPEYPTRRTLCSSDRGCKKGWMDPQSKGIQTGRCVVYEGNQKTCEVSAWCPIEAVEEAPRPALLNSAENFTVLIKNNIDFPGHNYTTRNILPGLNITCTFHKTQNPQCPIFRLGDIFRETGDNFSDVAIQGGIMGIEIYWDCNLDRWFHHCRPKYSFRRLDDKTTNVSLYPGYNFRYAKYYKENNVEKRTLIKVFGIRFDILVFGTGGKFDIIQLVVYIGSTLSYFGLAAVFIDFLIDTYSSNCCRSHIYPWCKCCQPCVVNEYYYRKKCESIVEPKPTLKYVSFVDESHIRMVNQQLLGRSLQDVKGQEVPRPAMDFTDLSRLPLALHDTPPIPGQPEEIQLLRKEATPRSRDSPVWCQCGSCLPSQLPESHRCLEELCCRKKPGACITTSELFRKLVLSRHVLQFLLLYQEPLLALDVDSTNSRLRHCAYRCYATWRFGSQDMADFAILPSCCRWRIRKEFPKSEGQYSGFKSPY
As to the kind of experiment: Pore permeation assay (YO PRO dye uptake, BzATP-induced). The class given is cell-based. The arrangement: expressed in transfected cells; host or cells: HEK293. The following applies: HEK293 transfected with human P2X7 receptor, BzATP 10 uM, read-out: hP2X7 IC50. The method, then:
Agonist-induced pore formation was determined by measuring cellular uptake of YO PRO fluorescence dye in HEK293 transfected with human P2X7 receptor. A HEK293 cell over expressing human P2X7 was harvested using HQTase reagent to detach the cells from T75 cm flask. The harvested cells are centrifuged @1200 rpm for 5 min at room temperature. The viability of cells was determined by Trypan blue dye and the cells are plated @10,000 cell/well in 50 ul volume in a 384W BD Poly lysine coated plate and incubated overnight at 37 C. After overnight incubation, the culture medium was replaced with 35 ul/well assay buffer (5 mM KCl, 0.1 mM CaCl2, 5 mM Glucose, 10 mM HEPES buffer pH7.4 containing 125 mM NaCl. The serial dilution of compounds was performed using Bravo liquid handling instrument and the compounds were added using Bravo to the cell assay plate starting at 2.5 uM with three dilutions for 10 points. The positive control inhibitor compound was added to column 23. The plate was shaken slowly on a plate shaker for 10 seconds. The cells were incubated with the compound for 20 minutes at room temperature. After the incubation period, YO PRO dye (1 uM) along with BzATP (10 uM) were added to cells at 10 ul/well. The plate was centrifuged at 1000 rpm for 5 seconds and incubated at room temperature for 30 minutes. The uptake of YO PRO dye into the cells was measured using Envision Fluorescence plate reader instrument (Perkin Elmer).

Test [2] addresses T1, P2X7. As to the kind of experiment: IL-1β release assay in THP-1 cells (sandwich ELISA, BzATP-stimulated). The arrangement: endogenous in cells; host or cells: THP-1 cells (PMA-differentiated, LPS-primed). As to conditions: LPS primed, 0.8 mM BzATP, mature IL-1β release, read-out: hTHP-1/IL-ib IC50. The class given is cell-based. The method, then: IL-1β release assay: The activation of P2X7 by ATP leads to a fast transient activation of cells resulting in influx of Ca^2+ followed by conversion of pro-IL-1β to active IL-1β. The functional activity of P2X7 compounds was measured by the release of mature IL-1β in the culture medium of THP-1 cells, detected by sandwich ELISA. Cells were maintained in complete growth medium (RPMI 1640+10% HI-FCS+2 mM L-glutamine+1× PS). […] THP-1 cells were harvested from the flask in 50 ml by centrifugation for 3 min at 100 g. The cells were resuspended to 2×10^5 cells/ml in medium supplemented with 0.5 μM PMA and incubated. The cells were washed and resuspended to 1.5×10^5 cells/ml in medium complemented with 10 ng/ml LPS, and the cells were primed for 4 h at 37° C., 5% CO2. After addition of 20 μL of prediluted test compounds, blank, standard and control reagents, cells were incubated for a further 20 min at 37° C. and stimulated with 0.8 mM BzATP for 30 minutes. The cells were centrifuged, supernatant was collected and the presence of mature IL-1β was detected using Dual human IL-1b kit following manufacturer's instruction. The tetrahydrobenzodiazepine analogs effectively modulated the activity of P2X7 in the cells as measured by the levels of pro-inflammatory cytokine IL-1β, which is released by the activation of P2X7 receptor.

pIC50: −log10 of the molar value. A value given as a limit tells only on which side of the number the result lay.

With `COCCc1cc(C(=O)NCC2(O)CCCC(F)(F)C2)c2c(Cl)cccn12` (stereo in doubt) [Compound 63, 8-Chloro-3-(2-methoxy-ethyl)-indolizine-1-carboxylic Acid ((S)-3,3-difluoro-1-hydroxy-cyclohexylmethyl)-amide], the pIC50 on P2X7 [1] and at P2X7 [2] was over 8.00 in each case.

Regarding `CC1CC(CNC(=O)c2cc(CCO)n3cccc(Cl)c23)CC(F)(F)C1` (stereo not shown) [Compound 36, 8-chloro-N-((3,3-difluoro-5-methylcyclohexyl)methyl)-3-(2-hydroxyethyl)indolizine-1-carboxamide], the pIC50 on P2X7 [1] and at P2X7 [2] was 7.00 to 8.00 throughout.

`[2H]C([2H])([2H])OCCc1cc(C(=O)NCC2CCC(F)(F)CC2)c2c(Cl)cccn12` [Compound 72]: the pIC50 on P2X7 [1] and at P2X7 [2] was 7.00 to 8.00 throughout.

`COCCc1cc(C(=O)NCC2(O)CCCC(F)(F)C2)c2c(Cl)cccn12` (stereo not shown) [Compound 62, 8-Chloro-3-(2-methoxy-ethyl)-indolizine-1-carboxylic Acid (3,3-difluoro-1-hydroxycyclohexylmethyl)-amide]: the pIC50 on P2X7 [1] was over 8.00; at P2X7 [2] it was 7.00 to 8.00.

With `O=C(NC[C@@]1(O)CCCC(F)(F)C1)c1cc(C2CCOC2)n2cccc(Cl)c12` (stereo partly drawn) [Compound 66, 8-chloro-N—(((R)-3,3-difluoro-1-hydroxycyclohexyl)methyl)-3-(tetrahydrofuran-3-yl)indolizine-1-carboxamide], the pIC50 at P2X7 [1] was 7.00 to 8.00; on P2X7 [2] it was 6.30 to 7.00.

For `COCCc1cc(C(=O)NCC2(O)CCCC(F)(F)C2)c2c(C)cccn12` (stereo not shown) [Compound 57, 3-(2-Methoxy-ethyl)-8-methyl-indolizine-1-carboxylic Acid (3,3-difluoro-1-hydroxy-cyclohexylmethyl)-amide], the pIC50 on P2X7 [1] and at P2X7 [2] was 6.30 to 7.00 each time.

Turning to `O=C(NCC1(O)CCCC(F)(F)C1)c1cc(C2CCOC2)n2cccc(Cl)c12` (stereo not shown) [Compound 65, 8-Chloro-3-(tetrahydro-furan-3-yl)-indolizine-1-carboxylic Acid (3,3-difluoro-1-hydroxycyclohexyl methyl)-amide], the pIC50 at P2X7 [1] and on P2X7 [2] was 7.00 to 8.00 each time.

With `COCCc1cc(C(=O)NCC2CCCC(F)(F)C2)c2c(Cl)cccn12` (stereo not shown) [Compound 31, 8-chloro-N-((3,3-difluorocyclohexyl)methyl)-3-(2-methoxyethyl)indolizine-1-carboxamide], the pIC50 on P2X7 [1] and at P2X7 [2] was 7.00 to 8.00 throughout.

As for `O=C(NCC1CCCC(F)(F)C1)c1cc(CCO)n2cccc(Cl)c12` (stereo not shown) [Compound 45, 8-chloro-N-((3,3-difluorocyclohexyl)methyl)-3-(2-hydroxyethyl)indolizine-1-carboxamide], the pIC50 at P2X7 [1] is 7.00 to 8.00; on P2X7 [2], 6.30 to 7.00.

As for `COCCc1cc(C(=O)NC[C@@]2(O)CCC[C@@H](C)C2)c2c(C(F)(F)F)cccn12` [Compound 22, 3-(2-Methoxy-ethyl)-8-trifluoromethyl-indolizine-1-carboxylic Acid ((1R,3R)-1-hydroxy-3-methyl-cyclohexylmethyl)-amide], the pIC50 at P2X7 [1] and on P2X7 [2] was 7.00 to 8.00 in each case.

For the compound `COCCc1cc(C(=O)NC[C@@]2(O)CCC[C@@H](C)C2)c2c(Cl)cccn12` [Compound 18], the pIC50 on P2X7 [1] and at P2X7 [2] was 7.00 to 8.00 throughout.

As to `O=C(NCC1CCC(F)(F)CC1)c1cc(C2CCC2)n2cccc(Cl)c12` [Compound 5, 8-chloro-3-cyclobutyl-N-((4,4-difluorocyclohexyl)methyl)indolizine-1-carboxamide], the pIC50 on P2X7 [1] was 7.00 to 8.00; on P2X7 [2] it was 6.30 to 7.00.

On to `CCOCCc1cc(C(=O)NCC2(O)CCCC(F)(F)C2)c2c(Cl)cccn12` (stereo not shown) [Compound 70, 8-Chloro-3-(2-ethoxy-ethyl)-indolizine-1-carboxylic Acid (3,3-difluoro-1-hydroxy-cyclohexylmethyl)-amide], for which the pIC50 on P2X7 [1] and on P2X7 [2] was 7.00 to 8.00 each time.

Take `O=C(NCC1CCC(F)(F)CC1)c1cc(C2CCOC2)n2cccc(Cl)c12` (stereo not shown) [Compound 40, 8-chloro-N-((4,4-difluorocyclohexyl)methyl)-3-(tetrahydro-furan-3-yl)indolizine-1-carboxamide]: the pIC50 at P2X7 [1] and at P2X7 [2] was 7.00 to 8.00 each time.

Turning to `O=C(NCC1CCC(F)(F)CC1)c1cc(C2=COCC2)n2cccc(Cl)c12` [Compound 14, 8-chloro-N-((4,4-difluorocyclohexyl)methyl)-3-(4,5-dihydrofuran-3-yl)indolizine-1-carboxamide], the pIC50 at P2X7 [1] and on P2X7 [2] was 7.00 to 8.00 in each case.

Regarding `COCCc1cc(C(=O)NCC2CCC(F)(F)C(C)C2)c2c(Cl)cccn12` (stereo not shown) [Compound 11, 8-chloro-N-((4,4-difluoro-3-methylcyclohexyl)methyl)-3-(2-methoxyethyl) indolizine-1-carboxamide], the pIC50 on P2X7 [1] is over 8.00; at P2X7 [2], 7.00 to 8.00.

Take `O=C(NCC1(O)CCC(F)(F)CC1)c1cc(CC2CCOC2)n2cccc(Cl)c12` (stereo not shown) [Compound 47, 8-chloro-N-((4,4-difluoro-1-hydroxycyclohexyl)methyl)-3-((tetrahydrofuran-3-yl)methyl)indolizine-1-carboxamide]: the pIC50 at P2X7 [1] and at P2X7 [2] was 7.00 to 8.00 each time.

For `COCCc1cc(C(=O)NCC2CCCC3(CC3)C2)c2c(Cl)cccn12` (stereo not shown) [Compound 2, 8-chloro-3-(2-methoxyethyl)-N-(spiro[2.5]octan-5-ylmethyl)indolizine-1-carboxamide], the pIC50 at P2X7 [1] was over 8.00; on P2X7 [2] it was 7.00 to 8.00.

Turning to `CC1CC(CNC(=O)c2cc(CCO)n3cccc(Cl)c23)CCC1(F)F` (stereo not shown) [Compound 32, 8-chloro-N-((4,4-difluoro-3-methylcyclohexyl)methyl)-3-(2-hydroxyethyl) indolizine-1-carboxamide], the pIC50 was over 8.00 on P2X7 [1] and 7.00 to 8.00 at P2X7 [2].

Regarding `COCCc1cc(C(=O)NC[C@@]2(O)CCC[C@@H](C)C2)c2c(C)cccn12` [Compound 16, 3-(2-Methoxy-ethyl)-8-methyl-indolizine-1-carboxylic Acid ((1R,3R)-1-hydroxy-3-methylcyclohexylmethyl)-amide], the values for the pIC50 on P2X7 [1] and on P2X7 [2] were 7.00 to 8.00 and 6.30 to 7.00, respectively.

Turning to `O=C(NCC1(O)CCCC(F)(F)C1)c1cc(C2CCCO2)n2cccc(Cl)c12` (stereo not shown) [Compound 54, 8-Chloro-3-(tetrahydro-furan-2-yl)-indolizine-1-carboxylic Acid (3,3-difluoro-1-hydroxycyclohexyl methyl)-amide], the pIC50 is over 8.00 at P2X7 [1] and 7.00 to 8.00 on P2X7 [2].

Take `COCCc1cc(C(=O)NCC2CCCCC2)c2c(Cl)cccn12` [Compound 8, 8-chloro-N-(cyclohexylmethyl)-3-(2-methoxyethyl)-indolizine-1-carboxamide]: the pIC50 at P2X7 [1] is 7.00 to 8.00; at P2X7 [2], 6.30 to 7.00.

On to `O=C(NCC1CCCCC1)c1cc(CCO)n2cccc(Cl)c12` [Compound 15, 8-chloro-N-(cyclohexylmethyl)-3-(2-hydroxyethyl)indolizine-1-carboxamide], for which the pIC50 on P2X7 [1] and at P2X7 [2] was 6.30 to 7.00 in each case.

The values above are taken from patent US9931324B2, “Indolizine derivatives and their use in neurodegenerative diseases” (Merck Patent GmbH, priority 2014, dated 2018).
